Structures are written as SMILES.

As usually defined, the Kd is the equilibrium constant for the complex coming apart. High values mean lower affinity, low ones higher affinity.

In test [1] the target is HemO (Pseudomonas aeruginosa, UniProt G3XCZ8). Description: intrinsic fluorescence quenching. Format: binding.
In test [2] the target is HemO (Pseudomonas aeruginosa, UniProt G3XCZ8, D99A). Description: biochemical.
Test [3] addresses HemO (Pseudomonas aeruginosa, UniProt G3XCZ8, D99A/R188A). Briefly: biochemical.
Test [4] addresses HemO (Pseudomonas aeruginosa, UniProt G3XCZ8, R188A). Briefly: biochemical.

Turning to `C=CC1=C(C)C2=Cc3c(C=C)c(C)c4[n]3[Fe]([Cl])[n]3c(c(C)c(CCC(=O)O)c3=CC3=NC(=C4)C(C)=C3CCC(=O)O)=CC1=N2` [heme], the Kd was determined as 870 ± 170 nM in test [1], 830 ± 210 nM in test [2], 990 ± 210 nM in test [3] and 790 ± 220 nM in test [4].

The values above are taken from PMC6203605 (Journal of biological inorganic chemistry : JBIC : a …, 2018).
